In patent publication US20250205312A1, “Orally Available Albenatide” (AlbuNext, LLC, priority 2023, published 2025):
Several values for one entry are separate records, joined by “and”; a condition that tells them apart may be missing. Equal entries are not always repeated.

System: db/db mice
Experiment: Pharmacodynamics study: blood glucose level-time profiles after single treatment
Assay type: in vivo
Details: SC 0.8 mg/kg
From the text: For pharmacodynamics studies, db/db mice were randomly divided into 5 groups (n=3). The test article preparation and dosing procedure followed the same way as described in PK study above. The study protocol is described in Table 6.

**Q.** With CJC-1134 [CJC-1134-SC] as the substance, how does the “Blood Glucose AUC, Mean” value (db/db mice (n=3)) read?
**A.** 364.1 mmol·h/L

**Q.** What about the “Blood Glucose Level, Mean” value (db/db mice (n=3), 0 h after fasting) of the same substance?
**A.** 15.2 mmol/L

**Q.** And the “Blood Glucose Level, Mean” value (db/db mice (n=3), 0.25 h)?
**A.** 22.4 mmol/L

**Q.** And the “Blood Glucose Level, Mean” value (db/db mice (n=3), 0.5 h)?
**A.** 19.6 mmol/L

**Q.** And the “Blood Glucose Level, Mean” value (db/db mice (n=3), 1 h)?
**A.** 14.6 mmol/L

**Q.** What about the “Blood Glucose Level, Mean” value (db/db mice (n=3), 3 h) of the same substance?
**A.** 13.5 mmol/L

**Q.** And the “Blood Glucose Level, Mean” value (db/db mice (n=3), 6 h)?
**A.** 16.3 mmol/L

**Q.** What about the “Blood Glucose Level, Mean” value (db/db mice (n=3), 8 h) of the same substance?
**A.** 13.0 mmol/L

**Q.** And the “Blood Glucose Level, Mean” value (db/db mice (n=3), 24 h)?
**A.** 17.4 mmol/L

**Q.** What about the “Blood Glucose Level” value (db/db mice, 0 h after fasting, individual mice, 0.8 mg/kg) of the same substance?
**A.** 8.7 mmol/L and 16.4 mmol/L and 20.6 mmol/L

**Q.** And the “Blood Glucose Level” value (db/db mice, 0.25 h, individual mice, 0.8 mg/kg)?
**A.** 20.5 mmol/L and 21.2 mmol/L and 25.6 mmol/L

**Q.** And the “Blood Glucose Level” value (db/db mice, 0.5 h, individual mice, 0.8 mg/kg)?
**A.** 18.8 mmol/L and 21.0 mmol/L and 19.0 mmol/L

**Q.** What about the “Blood Glucose Level” value (db/db mice, 1 h, individual mice, 0.8 mg/kg) of the same substance?
**A.** 11.5 mmol/L and 16.5 mmol/L and 15.9 mmol/L

**Q.** What about the “Blood Glucose Level” value (db/db mice, 3 h, individual mice, 0.8 mg/kg) of the same substance?
**A.** 10.4 mmol/L and 14.0 mmol/L and 16.1 mmol/L

**Q.** And the “Blood Glucose Level” value (db/db mice, 6 h, individual mice, 0.8 mg/kg)?
**A.** 12.7 mmol/L and 18.7 mmol/L and 17.5 mmol/L

**Q.** What about the “Blood Glucose Level” value (db/db mice, 8 h, individual mice, 0.8 mg/kg) of the same substance?
**A.** 11.3 mmol/L and 16.3 mmol/L and 11.4 mmol/L

**Q.** And the “Blood Glucose Level” value (db/db mice, 24 h, individual mice, 0.8 mg/kg)?
**A.** 17.0 mmol/L and 16.9 mmol/L and 18.4 mmol/L

**Q.** And the “Blood Glucose AUC” value (db/db mice, individual mice, 0.8 mg/kg)?
**A.** 323.1 mmol·h/L and 399.5 mmol·h/L and 369.8 mmol·h/L
